Experimental data from patent US6399607B1, “Aminomethylene amide analogs of pyrazinamide with intracellular antimycobacterial activity against pyrazinamide-resistant mycobacteria combined with a rifamycin” (priority 1999, dated 2002).
In brackets after ≈: the same amount, converted by molar mass.

Tests used:
M. tuberculosis [1] = test: MIC in modified 7H10 broth against M. tuberculosis (Table 3); assay type: cell-based, Mycobacterium tuberculosis; parameters: MIC, M. tuberculosis ATCC 35801 / MIC, M. tuberculosis ATCC 27294: unit not given here; details: for MIC, M. tuberculosis ATCC 27294: ATCC 27294 (H37RV, PZA susceptible), pH 5.8; for MIC, M. tuberculosis ATCC 35801: ATCC 35801, pH 5.8
M. kansasii = test: MIC in modified 7H10 broth against M. kansasii (Tables 3, 4); assay type: cell-based, Mycobacterium kansasii; parameters: unit not given beside the values; details: clinical isolate S
M. avium complex = test: MIC in modified 7H10 broth against M. avium complex (Tables 3, 4); assay type: cell-based, Mycobacterium avium; parameters: unit not given here
M. tuberculosis [2] = test: microbe, parasite or virus in culture; assay type: cell-based, Mycobacterium tuberculosis; parameters: MIC, pansusceptible strain, pH 5.5 / MIC, Pansusceptible strain, pH 6.0 / MIC, Pansusceptible strain, pH 6.8: unit not given here; details: for MIC, Pansusceptible strain, pH 6.0 / MIC, Pansusceptible strain, pH 6.8: 7H12 BACTEC broth, three pansusceptible strains; for MIC: Mycobacterium tuberculosis, same at pH 6.0 and 6.8
M. tuberculosis [3] = test: Murine model of tuberculosis, combination with KRM-1648 (RLZ) (FIG. 2); assay type: in vivo; details: mice, in combination with KRM-1648 (Rifalazil, RLZ)
Mycobacterium avium = details: Heifets et al, Am. Rev. Resp. Dis. 134: 1287-1288 (1986); cited from earlier work
[4] = cited from earlier work
[5] = tested on: Mtb organisms which have been phagocytized; details: reduced efficacy after 4 to 7 days; cited from earlier work
[6] = Table 3, modified 7H10 broth, pH 5.8
[7] = Table 3, ATCC 49601 (serotype 1), modified 7H10 broth, pH 5.8
[8] = Table 3, strain 101 (serotype 1), modified 7H10 broth, pH 5.8

| SMILES | MIC, M. tuberculosis ATCC 27294 (M. tuberculosis [1]) | MIC, M. tuberculosis ATCC 35801 (M. tuberculosis [1]) | MIC, M. kansasii S (M. kansasii; [6]) | MIC, M. kansasii S (M. kansasii; Table 4) | MIC, M. avium complex ATCC 49601 (M. avium complex; [7]) | MIC, M. avium complex 101 (M. avium complex; [8]) | MIC, M. avium complex ATCC 49601 (M. avium complex; Table 4, ATCC 49601) | MIC, M. avium complex 101 (M. avium complex; Table 4, strain 101) | other results |
| --- | --- | --- | --- | --- | --- | --- | --- | --- | --- |
| O=C(NCN1CCOCC1)c1cnccn1 [Compound 4, (morpholin-4-ylmethyl)-amide] | 32 | 16 | 128 | 128 | >128 | >128 | >128 | 128 |  |
| O=C(NCN1CCCC1)c1cnccn1 [Compound 1, pyrazine-2-carboxylic acid (pyrrolidin-1-ylmethyl)-amide] | 16 | 8 | 128 | 128 | >128 | >128 | >128 | >128 | MIC, Pansusceptible strain, pH 6.0 (M. tuberculosis [2]): 100; MIC, Pansusceptible strain, pH 6.8 (M. tuberculosis [2]): 100; MIC, pansusceptible strain, pH 5.5 (M. tuberculosis [2]; pansusceptible strain, pH 5.5): 50; reduction of CFUs / infection in murine model of tuberculosis (M. tuberculosis [3]): superior or equivalent to PZA in reducing CFUs |
| CCCCN(CC)CNC(=O)c1cnccn1 [Compound 5] |  |  |  | >128 |  |  | >128 | 128 |  |
| O=C(NCN1CCOCC1)c1cnccn1 [MZA, morphazinamide] |  |  |  |  |  |  |  |  | MIC (M. tuberculosis [2]; 7H12 broth): 100 µg/mL (≈ 450 µM) |
| CCN(CC)CNC(=O)c1cnc(N(CC)CC)cn1 [Compound 17, 5-diethylamino-pyrazinoic acid diethylaminomethyl-amide] | 64 | 16 | >128 |  | >128 | (>128 |  |  |  |
| CCCCN(CCCC)CNC(=O)c1cnccn1 [Compound 10] |  |  |  | >128 |  |  | >128 | >128 |  |
| CCCCN(C)CNC(=O)c1cnccn1 [Compound 6] |  |  |  | 128 |  |  | >128 | 128 |  |
| CN(CNC(=O)c1cnccn1)Cc1ccccc1 [Compound 8, [(benzyl-methyl-amino)-methyl]-amide] |  |  |  | 128 |  |  | 128 | 128 |  |
| CCCN(CCC)CNC(=O)c1cnccn1 [Compound 9, dipropylaminomethyl-amide] |  |  |  | 128 |  |  | >128 | 128 |  |
| CCN(CC)CNC(=O)c1cnccn1 [Compound 2, pyrazine-2-carboxylic acid diethylaminomethyl-amide] | 16 | 2 | 128 |  | 128 | 128 |  |  | MIC, Pansusceptible strain, pH 6.0 (M. tuberculosis [2]): 100; MIC, Pansusceptible strain, pH 6.8 (M. tuberculosis [2]): 100; MIC (M. tuberculosis [2]; 7H12 broth): 100 µg/mL (≈ 480 µM); reduction of CFUs / infection in murine model of tuberculosis (M. tuberculosis [3]): superior or equivalent to PZA in reducing CFUs |
| CN1CCN(CNC(=O)c2cnccn2)CC1 [Compound 7, (piperazin-1-ylmethyl)-amide] |  |  |  | >128 |  |  | >128 | >128 |  |
| NC(=O)c1cnccn1 [PZA, Pyrazinamide] | 16 | 32 | 2048 | 2048 | >2048 | >2048 | >2048 | >2048 | activity against Mycobacterium avium (Mycobacterium avium): Neither is it active; pKa [4]: 0.5; difference in MICs under different pH conditions (M. tuberculosis [2]; 7H12 broth, pH 6.0 v. 6.8): dramatic difference; activity in macrophages [5]: either weakly or clearly bacteriostatic in macrophages; reduction of CFUs / infection in murine model of tuberculosis (M. tuberculosis [3]): effective in reducing infection |
| NC(=O)c1cnc(Cl)cn1 [Compound 5-Chloro-PZA, 5-chloro-pyrazinamide, reference compound] | 16 | 16 | 32 | 32 | 32 | 32 | 32 | 32 |  |
